# Measurements reported in patent US20040235759A1, “Use of azalide antibiotic compositions for treating or preventing a bacterial or protozoal infection in mammals” (Pfizer Inc, priority 2000, published 2004).
# Tests used:
# [1] = tested on: Eimeria bovis, Eimeria aubumenis and Eimeria zuernii coccidia oocysts; test: Calves challenged with a coccidia challenge culture (Example 9); assay type: in vivo
# Excerpt: Sixty naive calves weighing approximately 110-125 kg were purchased from local dairies, weighed, identified by ear tag, and observed for general health assessments. Animals considered physically abnormal, undersized or moribund on arrival were excluded from the study. Calves were housed in five holding pens (12 animals/pen). Calves were held for 7 days prior to challenge in order to acclimate them to the facility. Prior to challenge, calves were excluded from the study at the discretion of the investigator. On days −6, −4 and −2 pre-challenge, fecal samples were obtained for semi-quantitative oocyst counts. On day −4 pre-challenge, oocysts, if present, were speciated.
# On day 8 post-arrival (study day 0), calves were inoculated orally with the Eimeria culture. Beginning on day 1, temperatures were determined and recorded at approximately the same time each day for the duration of the study. Attitude, hydration and fecal consistency scores were evaluated daily. Post-challenge, fecal samples were collected on days 2, 4, 6, 8 and 10. Oocysts were speciated on day 10 post-challenge. On day 10 post-challenge, fifty animals were randomly allotted to one of five treatment groups using a randomized block allotment. Treatments were equally represented in each pen. Animals were injected subcutaneously with a single dose of one of the following solutions: (1) about 4 mL of sterile 0.9% sodium chloride (saline); (2) about 4 mL of 300 mg/mL MICOTIL at a dose of 10 mg/kg of body weight; (3) about 6 mL of the pharmaceutical composition at a dose of 5 mg/kg of body weight; (4) about 3 mL of the pharmaceutical composition at a dose of 2.5 mg/kg of body weight; or animals were drenched dosed orally with (5) about 2 oz. of amprolium in a 9.6% oral solution at a dose of 10 mg/kg of body weight. Only amprolium was re-administered on each of the following four days. All other treatments were given in a single dose injection. Fecal samples were examined semi-quantitatively post-treatment for shedding of coccidia oocysts on days 12, 14, 16 and 18. Beginning on day 19 and continuing through day 28, daily fecal samples were evaluated for semi-quantitative counts. Speciation of shed oocysts was performed on days 19-21, 23, 26 and 28. Calves that died during the course of the study or that were euthanized due to a moribund condition associated with clinical coccidiosis were counted as mortalities. Mortalities were necropsied and gross findings were recorded. At the termination of the study on day 28, all remaining animals were weighed, euthanized and examined post-mortem.
# Assessment of drug efficacy was determined based upon analysis of mean daily clinical scores, temperature and oocyst shedding. Differences in clinical scores and temperature between different treatments were evaluated by repeated measures ANOVA. Differences in weight gain were determined by factorial ANOVA. Comparisons of mortality rates and oocyst shedding between treatments was performed using Chi-Square analysis and Fisher's Exact test.
# [2] = Equilibration of N-(n-propyl) isomer I and isomer II in heated aqueous acid solution, HPLC (Example 2, Table 1); assay type: physicochemical; conditions: N-(n-propyl) isomer I prior to equilibration, for comparison
# Excerpt: The equilibrium ratio of N-(n-propyl) isomer I and N-(n-propyl) isomer II (about 90%±4% to about 10%±4%, respectively) was consistent for all experiments. […] Without being bound by any theory, lower equilibration temperatures or lower pH values generally result in substantially longer equilibration times. Equilibration time can also depend on, inter alia, the concentration of starting material, and the type and concentration of the acid used. N-(n-propyl) isomer I at a concentration of up to about 300 mg per mL of composition was heated to a temperature of about 40° C. to about 80° C. in the presence of one or more acids at a concentration of about 0.2 mmol to about 1.0 mmol per mL of mixture and with a sufficient quantity of hydrochloric acid to achieve a pH of about 6.5 to about 7.5 for up to about 20 hours to produce an equilibrium mixture of isomers that is about 95%-98% pure. Equilibration kinetic parameters and impurity levels for equilibration of N-(n-propyl) isomer I and N-(n-propyl) isomer II were determined as a function of pH, equilibration temperature, type of acid, and N-(n-propyl) isomer I concentration and are listed in Table 1. […]
# Equilibrium mixtures of isomers were prepared and assayed as follows. […] Where 0.1 M citric or tartaric acid was used, hydrochloric acid was also added in a quantity sufficient to obtain the pH listed in column 2. […]
# Pasteurella multocida = test: Therapeutic efficacy in swine infected with Pasteurella multocida (Example 5); assay type: in vivo; conditions: pigs, P. multocida challenge, 1.25 mg/kg intramuscular
# Excerpt: By Apotency-actual@ number, as used herein, is meant the actual mg per mL of the substantially pure mixture or equilibrium mixture of N-(n-propyl) isomer I and N-(n-propyl) isomer II present in the pharmaceutical composition.
# Fifty clinically normal and healthy pigs having a consistent body weight of approximately 10 kg were selected from a pool of 60 animals. Selected animals (10 per treatment) were randomly assigned to treatment and sorted into pens accordingly. On day 0, each animal was inoculated endotracheally with 25 mL of Pasteurella multocida challenge culture. […] Temperatures and illness scores were recorded 6 hours post-challenge and once daily beginning at 24 hours post-challenge. […] An estimate of the percentage of affected lung tissue was determined and recorded. […]
# Assessment of efficacy was determined based upon comparison of mean daily illness scores, temperatures and lung-lesion scores. Differences between treatments for mean daily rectal temperatures and illness scores were evaluated by a repeated measures analysis of variance. Differences between mean lung-lesion scores for each treatment were evaluated using a factorial analysis of variance procedure. […]
# [3] = tested on: Actinobacillus pleuropneumoniae; test: Pigs at a high risk for developing an Actinobacillus pleuropneumoniae infection, seeder-pig exposure (Example 8); assay type: in vivo
# Excerpt: One hundred and thirty clinically healthy pigs having an average body weight of approximately 10 kg were purchased, identified with an ear tag and acclimated to the study site 2 days before the study began. On day −1, all animals were weighed and 100 animals were selected for consistency of body weight (about 10 kg) and lack of signs of clinical abnormalities. Selected animals (20 per treatment) were randomly assigned to treatment and sorted into individual pens. A group of 25 additional animals were randomly assigned as seeder pigs (5 per treatment). […] Temperatures and illness scores were recorded daily. […] An estimate of the percentage of affected lung tissue was determined and recorded. […]
# Assessment of efficacy was determined based upon comparison of mean daily illness scores, temperatures and lung-lesion scores. Differences between treatments for mean daily rectal temperatures and illness scores were evaluated by a repeated-measures analysis of variance. […]
# [4] = amprolium, MICOTIL, or pharmaceutical composition at either dose level
smiles,measurement,setting,value
"CCCc1ncc(C[n+]2ccccc2C)c(N)n1 [Amprolium, amprolium]",21-day Average Daily Weight Gain,"[1]; 10 mg/kg oral drench from day 10 post-challenge, re-administered on each of the following four days",0.60 kg
same,mean daily hydration scores compared to the saline treated calves,[1]; amprolium 10 mg/kg oral,statistically significant reductions (p<0.05)
same,mean daily attitude scores compared to the saline controls,[1]; [4],significant reductions (p<0.05)
same,mean daily fecal consistency scores compared to the saline treated calves,[1]; [4],statistically significant reductions (p<0.05)
same,oocyst shedding compared to the saline controls,[1]; days 19-28 post-challenge,decreased
CCCNC[C@]1(O)[C@H](C)O[C@@H](O[C@H]2[C@H](C)[C@@H](O[C@@H]3O[C@H](C)C[C@H](N(C)C)[C@H]3O)[C@](C)(O)C[C@@H](C)CN[C@H](C)[C@@H](O)[C@](C)(O)[C@@H](CC)OC(=O)[C@@H]2C)C[C@@]1(C)OC [DS],% Equilibrium mixture of isomers,[2],98.39%
same,% Impurities,[2],1.61%
"CN1C[C@@H]2C[C@H]1CN2c1cc2c(cc1F)c(=O)c(C(=O)O)cn2C1CC1 [Danofloxacin, danofloxacin]",Mean Lung Lesion Score (%),Pasteurella multocida; re-administered on each of the following two days,1.9%
same,mean daily illness scores,"Pasteurella multocida; three doses, saline about 3",about 2
same,Mean Lung-lesion Score,"[3]; pigs exposed to A. pleuropneumoniae seeder pigs, 1.25 mg/kg intramuscular, re-administered on each of the following two days",4.8%
same,mean daily illness scores in the saline-treated pigs compared to treated animals,"[3]; pigs, danofloxacin 1.25 mg/kg x3, pharmaceutical composition 2.5, 5, 10 mg/kg",Statistically significant (p<0.05) elevations
